Experimental findings from publication PMC9822940, “Antiplasmodial activity, structure–activity relationship and studies on the action of novel benzimidazole derivatives” (Scientific Reports, 2023) are described below.

pIC50: −log10 of the molar value. Where “and” joins values, the source holds several entries; their conditions need not be identical. Equal values may be shown once. Read-outs that look alike come from different tables or passages of the source.

One data set has as its system P. falciparum HB3 strain. Briefly: Antiplasmodial activity against P. falciparum HB3 strain in culture. In kind it is cell-based, Plasmodium falciparum. Conditions: for SI (selectivity index): Vero CC50 versus HB3 IC50. As to the method: (§1) In vitro activity of BZ. All BZ derivatives were tested at 10 μM against the HB3 strain of Pf, and for those compounds with a percentage of growth inhibition (% GI) higher than 50%, the IC50 values were determined. In addition, their cytotoxicity on epithelial Vero cell cultures was evaluated to calculate their selectivity indexes (SI), Table 1. An index of 10 or above is expected for a lead compound.
(§2) The chloroquine-sensitive […] and chloroquine-resistance 7G8 strain […] of P. falciparum were used throughout. Infected erythrocytes were kept in culture using the protocol established by Haynes et al.[44], basically utilizing human O^+ erythrocytes kept in an RPMI medium supplemented with glutamine and 10% human serum incubated in an atmosphere of 90% N2, 5% O2 and 5% CO2.

Data set [1] can be described thus: Cytotoxicity on epithelial Vero cell cultures. In kind it is cell-based. Conditions: African green monkey, epithelial Vero cells. Here is the method:
as §1

The subject of another data set is Vero cells. In words: Cytotoxicity on epithelial Vero cell cultures. In kind it is cell-based. Conditions: Vero cells. Here is the method:
as §1

Data set [2] relates to 7G8 P. falciparum parasites. In words: Antiplasmodial activity against chloroquine-resistant 7G8 P. falciparum. In kind it is cell-based, Plasmodium falciparum. Conditions: for pIC50: Plasmodium falciparum.
From the text: The mechanism used by Pf to prevent intoxication with free heme once hemoglobin is degraded is to form hemozoin crystals that capture heme. Mefloquine and other common antimalarials interfere with this pathway, resulting in the death of the parasite.
as §2

Setting [3] is: Plasmodium falciparum, HB3 strain (chloroquine-sensitive), read-out: IC50.
Setting [4] is: Plasmodium falciparum, at 10 μM, HB3 strain, read-out: GI (growth inhibition percentage).
Setting [5] is: HB3 strain (chloroquine-sensitive), read-out: IC50.

Regarding `Cc1ccc2[nH]c(NC(=O)c3cccnc3)nc2c1` [BZ 2], in the data set on P. falciparum HB3 strain (at 10 μM, HB3 strain), the “GI (growth inhibition percentage)” value was “inactive and 0.0%”.
Regarding `Cc1ccc2[nH]c(NC(=O)c3ccncc3)nc2c1` [BZ 3], the “GI (growth inhibition percentage)” value in the data set with P. falciparum HB3 strain (at 10 μM, HB3 strain) was “inactive and 0.0%”.
For `Cc1ccc2[nH]c(NC(=O)c3ncccc3C)nc2c1` [BZ 4, 3-Methyl-N-(5-methyl-1H-benzimidazol-2-yl)picolinamide], the melting point turned out to be 173 °C. The compound further came in with a CC50 in data set [1] of 6.8 µM. Moreover, the pIC50 in the data set with P. falciparum HB3 strain (setting [3]) was 5.60. Also, the inhibition at 10 µM with P. falciparum HB3 strain (setting [4]) is 92.4%. Besides, the “SI (selectivity index)” value with P. falciparum HB3 strain is 2.8.
In the same order, the values of `CCCCc1ccc(C(=O)Nc2nc3cc(C)ccc3[nH]2)nc1` [BZ 6, 5-Butyl-N-(5-methyl-1H-benzimidazol-2-yl)picolinamide] are 245 °C, 6.6 µM, 5.62, 90.9% and 2.7.
Consider `Cc1ccc2[nH]c(NC(=O)c3ccc(-c4ccccc4)cn3)nc2c1` [BZ 7], for which half-maximal cytotoxicity in the data set with Vero cells (CC50) was put at 19.5 µM. In addition, the pIC50 with P. falciparum HB3 strain (setting [5]) is 5.11. In addition, in the data set with P. falciparum HB3 strain (at 10 μM, HB3 strain), the “GI (growth inhibition percentage)” value turned out to be 57.5%.
With `Cc1ccc2[nH]c(NC(=O)c3ccc(C#N)cn3)nc2c1` [BZ 8], the “GI (growth inhibition percentage)” value in the data set with P. falciparum HB3 strain (at 10 μM, HB3 strain) is “inactive and 37.4%”.
`Cc1ccc2[nH]c(NC(=O)c3ccc4ccccc4n3)nc2c1` [BZ 9]: in the data set on Vero cells, the CC50 came out at 63 µM. The pIC50 in the data set on P. falciparum HB3 strain (setting [5]) is 4.85. Moreover, the “GI (growth inhibition percentage)” value in the data set on P. falciparum HB3 strain (at 10 μM, HB3 strain) stood at 73.1%.
As for `Cc1ccc2[nH]c(NC(=O)c3ccnc4ccccc34)nc2c1` [BZ 10], the “GI (growth inhibition percentage)” value in the data set on P. falciparum HB3 strain (at 10 μM, HB3 strain) is given as 60.5%.
On the same count and under the same terms, then `Cc1ccc2[nH]c(NC(=O)c3nccc4ccccc34)nc2c1` [BZ 11], with 0.0%.
In data set [1], `O=C(Nc1nc2cc(Cl)ccc2[nH]1)c1ccccn1` [BZ 12, N-(5-chloro-1H-benzimidazol-2-yl)picolinamide] came in with a CC50 of 15.4 µM. Besides, the pIC50 with P. falciparum HB3 strain (setting [3]) was 5.74; in data set [2] (7G8 strain (chloroquine-resistant), read-out: 7G8 Pf IC50), 5.44. In addition, in the data set on P. falciparum HB3 strain (setting [4]), the inhibition at 10 µM worked out at 91.4%. In addition, the figures for the “SI (selectivity index)” value (with P. falciparum HB3 strain; in data set [2] (Vero CC50 versus 7G8 IC50)) were 8.7 and 4.2, respectively.
Take `Cc1cccnc1C(=O)Nc1nc2cc(Cl)ccc2[nH]1` [BZ 13, N-(5-Chloro-1H-benzimidazol-2-yl)-3-methylpicolinamide]: the melting point was determined as 180 °C. In addition, in data set [1], the CC50 worked out at 8.6 µM. In the data set with P. falciparum HB3 strain (setting [3]), the pIC50 is 5.55. Also, in the data set on P. falciparum HB3 strain (setting [4]), the inhibition at 10 µM came to 87.3%. Also, the “SI (selectivity index)” value in the data set on P. falciparum HB3 strain amounted to 3.0.
As for `O=C(Nc1nc2cc(Cl)ccc2[nH]1)c1ncccc1Cl` [BZ 14], in the data set on P. falciparum HB3 strain (at 10 μM, HB3 strain), the “GI (growth inhibition percentage)” value is 11.9%.
`COc1ccnc(C(=O)Nc2nc3cc(Cl)ccc3[nH]2)c1` [BZ 15, N-(5-Chloro-1H-benzimidazol-2-yl)-4-methoxypicolinamide] yielded a melting point of 245 °C. Further, the midpoint of cytotoxicity in data set [1], the CC50, lay at 2 µM. Further, the pIC50 in the data set on P. falciparum HB3 strain (setting [3]) was 5.82. Besides, the inhibition at 10 µM in the data set on P. falciparum HB3 strain (setting [4]) turned out to be 89.8%. For the same compound, in the data set on P. falciparum HB3 strain, the “SI (selectivity index)” value turned out to be 1.4.
In the data set with Vero cells, `CCCCc1ccc(C(=O)Nc2nc3cc(Cl)ccc3[nH]2)nc1` [BZ 17] registered a CC50 of 3.4 µM. For the same compound, the pIC50 with P. falciparum HB3 strain (setting [5]) is 5.46. Moreover, the “GI (growth inhibition percentage)” value in the data set on P. falciparum HB3 strain (at 10 μM, HB3 strain) is recorded as 89.7%.
Compound `O=C(Nc1nc2cc(Cl)ccc2[nH]1)c1ccc(-c2ccccc2)cn1` [BZ 18, N-(5-Chloro-1H-benzimidazol-2-yl)-5-phenylpicolinamide] came in with a melting point of 214 °C. For the same compound, it took 0.6 µM to reach half-maximal cytotoxicity in data set [1] (CC50). Moreover, the pIC50 with P. falciparum HB3 strain (setting [3]) is 5.64. The inhibition at 10 µM in the data set on P. falciparum HB3 strain (setting [4]) amounted to 99.2%. Moreover, the “SI (selectivity index)” value in the data set on P. falciparum HB3 strain is 0.3.
Take `Cc1cccc(C(=O)Nc2nc3cc(Cl)ccc3[nH]2)n1` [BZ 19]: the “GI (growth inhibition percentage)” value in the data set on P. falciparum HB3 strain (at 10 μM, HB3 strain) is “inactive and 28.0%”.
Still for that read-out and setting: then `O=C(Nc1nc2cc(Cl)ccc2[nH]1)c1ccc2ccccc2n1` [BZ 20], with 25.9%; and `O=C(Nc1nc2cc(Cl)ccc2[nH]1)c1cnc2ccccc2c1` [BZ 21], with 0.0%.
In the case of `O=C(Nc1nc2cc(Cl)ccc2[nH]1)c1ccnc2ccccc12` [BZ 22, N-(5-Chloro-1H-benzimidazol-2-yl)quinoline-4-carboxamide], the melting point is 262 °C. Moreover, the CC50 in data set [1] was 16.1 µM. In the data set with P. falciparum HB3 strain (setting [3]), the pIC50 is 5.64. Besides, in the data set on P. falciparum HB3 strain (setting [4]), the inhibition at 10 µM was found to be 88.9%. In addition, the “SI (selectivity index)” value with P. falciparum HB3 strain came out at 6.9.
With `O=C(Nc1nc2cc(Cl)ccc2[nH]1)c1nccc2ccccc12` [BZ 23], the “GI (growth inhibition percentage)” value with P. falciparum HB3 strain (at 10 μM, HB3 strain) was determined as 53.7%.
Still for that read-out and setting: then `COc1ccc2nc(C(=O)Nc3nc4cc(Cl)ccc4[nH]3)ccc2c1` [BZ 24], with 22.3%; and `COc1ccc2[nH]c(NC(=O)c3ccccn3)nc2c1` [BZ 25], with 50.9%.
Consider `CCCCc1ccc(C(=O)Nc2nc3cc(OC)ccc3[nH]2)nc1` [BZ 27, 5-Butyl-N-(5-methoxy-1H-benzimidazol-2-yl)picolinamide], for which the melting point is 129 °C. The compound further showed a CC50 in data set [1] of 8.5 µM. For the same compound, in the data set on P. falciparum HB3 strain (setting [3]), the negative-log IC50 (pIC50) is 5.92. Besides, the inhibition at 10 µM in the data set with P. falciparum HB3 strain (setting [4]) came out at 100%. For the same compound, in the data set with P. falciparum HB3 strain, the “SI (selectivity index)” value was 7.4.
In the case of `COc1ccc2[nH]c(NC(=O)c3ccc(-c4ccccc4)cn3)nc2c1` [BZ 28], in the data set with Vero cells, the cytotoxic concentration (CC50) was determined as 14.6 µM. The pIC50 in the data set on P. falciparum HB3 strain (setting [5]) was 5.36. The “GI (growth inhibition percentage)” value in the data set with P. falciparum HB3 strain (at 10 μM, HB3 strain) is reported as 72.7%.
In the same order, the values of `O=C(Nc1nc2cc([N+](=O)[O-])ccc2[nH]1)c1ccccn1` [BZ 29] are 13.9 µM, 5.29 and 96.0%.
In the data set on Vero cells, `CCCCCCCCC(NC(=O)OC(C)(C)C)C(=O)Nc1ccc2[nH]c(NC(=O)c3ccccn3)nc2c1` (centres unmarked) [BZ 31] yielded a CC50 of 26.8 µM. Moreover, in the data set with P. falciparum HB3 strain (setting [5]), the pIC50 is 5.07.
The corresponding values for `CCCCCCCCC(N)C(=O)Nc1ccc2[nH]c(NC(=O)c3ccccn3)nc2c1` (centres unmarked) [BZ 32] are 16.4 µM and 5.17.
Regarding `CCCCc1ccc(C(=O)Nc2nc3cc(C)c(C)cc3[nH]2)nc1` [BZ 34], the midpoint of cytotoxicity in the data set on Vero cells, the CC50, lay at 3.2 µM. Also, the pIC50 in the data set with P. falciparum HB3 strain (setting [5]) was 5.47. The “GI (growth inhibition percentage)” value with P. falciparum HB3 strain (at 10 μM, HB3 strain) was 74.2%.
In the same order, the values of `Cc1cc2nc(NC(=O)c3ccc(-c4ccccc4)cn3)[nH]c2cc1C` [BZ 35] are 9.7 µM, 5.14 and 64.7%.
In turn, `O=C(Nc1nc2cc(Cl)c(Cl)cc2[nH]1)c1ccccn1` [BZ 36, N-(5,6-Dichloro-1H-benzimidazol-2-yl)picolinamide] showed a melting point of 281 °C. Moreover, the midpoint of cytotoxicity in data set [1], the CC50, lay at 11.8 µM. Besides, in the data set with P. falciparum HB3 strain (setting [3]), the pIC50 is 5.62. The inhibition at 10 µM in the data set on P. falciparum HB3 strain (setting [4]) turned out to be 81.9%. In the data set on P. falciparum HB3 strain, the “SI (selectivity index)” value was 5.0.
Regarding `CCN(CC)CCCC(C)Nc1ccnc2cc(Cl)ccc12` (centres unmarked) [Chloroquine, reference compound], the pIC50 with P. falciparum HB3 strain (Plasmodium falciparum, HB3) was 7.55; in data set [2] (7G8, read-out: 7G8 Pf IC50), 6.64. For the same compound, the inhibition at 10 µM in the data set with P. falciparum HB3 strain (Plasmodium falciparum, HB3, read-out: GI (growth inhibition percentage)) came to 100%.

A word on the CC50: it is the concentration giving 50% cytotoxicity. The low end stands for harm at low concentration, the high end for better tolerance by the cells. By melting point is commonly meant the temperature of the solid-liquid transition. By pIC50 is commonly meant the negative decadic logarithm of the IC50, by convention in mol/L. For orientation: inhibition means the relative decrease from the control value, in per cent.
